We go through 33 compounds from patent US20140315933A1, “CHEMICAL COMPOUNDS” (Pfizer Limited, priority 2013, published 2014).

pIC50: −log10 of the molar value. Structures can show the parent of a compound that is named as a salt.

In this assay the target is T1, URAT-1 transporter (Homo sapiens, UniProt Q96S37).
T1 construct: expressed in transfected cells
T1 sequence (Q96S37 with tags, fused parts or gaps): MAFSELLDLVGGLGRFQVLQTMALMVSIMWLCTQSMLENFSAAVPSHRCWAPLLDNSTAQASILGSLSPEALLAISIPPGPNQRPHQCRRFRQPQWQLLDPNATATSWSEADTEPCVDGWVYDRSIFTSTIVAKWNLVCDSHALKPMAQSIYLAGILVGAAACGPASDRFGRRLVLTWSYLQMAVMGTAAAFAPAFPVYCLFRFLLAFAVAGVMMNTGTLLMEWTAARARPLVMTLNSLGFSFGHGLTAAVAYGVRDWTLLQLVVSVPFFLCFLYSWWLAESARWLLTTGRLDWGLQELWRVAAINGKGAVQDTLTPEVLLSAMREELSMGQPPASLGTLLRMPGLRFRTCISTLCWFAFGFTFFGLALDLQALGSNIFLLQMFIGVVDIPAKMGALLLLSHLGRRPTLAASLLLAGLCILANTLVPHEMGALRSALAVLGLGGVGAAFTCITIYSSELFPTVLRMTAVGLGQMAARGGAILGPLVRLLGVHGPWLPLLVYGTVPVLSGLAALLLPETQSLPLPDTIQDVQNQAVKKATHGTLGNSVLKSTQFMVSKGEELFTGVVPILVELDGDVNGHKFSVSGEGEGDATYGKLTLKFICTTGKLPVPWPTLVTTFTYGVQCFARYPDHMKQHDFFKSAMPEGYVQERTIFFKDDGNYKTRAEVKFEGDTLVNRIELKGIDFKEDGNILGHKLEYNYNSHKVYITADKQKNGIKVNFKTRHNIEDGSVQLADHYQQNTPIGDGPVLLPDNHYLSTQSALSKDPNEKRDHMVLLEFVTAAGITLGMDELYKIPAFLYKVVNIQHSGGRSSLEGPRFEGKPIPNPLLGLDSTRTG
In words: URAT-1 inhibitor activity: [14C]-uric acid uptake into CHO-URAT1(L)GFP#8 (CHO#8) cells, scintillation proximity. In kind it is cell-based. An outline of the steps:
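Scintillation proximity read-out of 30 nM (final) [14C]-uric acid uptake over three hours at room temperature in chloride-free HEPES buffer pH 7.4. Compounds, 0–10 μM final with 0.25% DMSO, were added 15 minutes before substrate; cells were a clonal CHO line with human URAT1(L)-eGFP, preincubated 1 hour in chloride buffer.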
(Scintillation proximity formats need no separation of bound from free tracer.)
As to `COc1cc(Cl)cc(Cl)c1Oc1cc(F)c(S(=O)(=O)Nc2nncs2)cc1Cl` [Example 157, 5-chloro-4-(2,4-dichloro-6-methoxyphenoxy)-2-fluoro-N-(1,3,4-thiadiazol-2-yl)benzenesulfonamide diethylamine salt], the pIC50 (as a rule, the IC50 on a negative log10 scale, so that one unit is a factor of ten) is 5.54.

`O=S(=O)(Nc1cscn1)c1cc(Cl)c(Oc2cc(Cl)ccc2OC(F)F)cc1F` [Example 158, 5-chloro-4-[5-chloro-2-(difluoromethoxy)phenoxy]-2-fluoro-N-(1,3-thiazol-4-yl)benzenesulfonamide] had a negative logarithm of the IC50 (pIC50) of 5.49.

Turning to `O=S(=O)(Nc1cscn1)c1cc(Cl)c(Oc2ccc(Cl)cc2OC(F)F)cc1F` [Example 159, 5-chloro-4-[4-chloro-2-(difluoromethoxy)phenoxy]-2-fluoro-N-(1,3-thiazol-4-yl)benzenesulfonamide], the pIC50 was 6.30.

The compound `O=S(=O)(Nc1cscn1)c1cc(Cl)c(Oc2cc(C(F)(F)F)ccc2I)cc1F` [Example 160, 5-chloro-2-fluoro-4-[2-iodo-5-(trifluoromethyl)phenoxy]-N-(1,3-thiazol-4-yl)benzene-sulfonamide] had a negative logarithm of the IC50 (pIC50) of 6.46.

As for `O=S(=O)(Nc1cscn1)c1cc(Cl)c(Oc2ccc(C(F)(F)F)cc2Br)cc1F` [Example 161, 4-[2-bromo-4-(trifluoromethyl)phenoxy]-5-chloro-2-fluoro-N-(1,3-thiazol-4-yl)benzenesulfonamide], the negative logarithm of the IC50 (pIC50) was < 5.31.

For `CN(C)c1ccc(Oc2ccc(S(=O)(=O)Nc3nccs3)cc2C#N)cn1` [Example 186, 3-cyano-4-{[6-(dimethylamino)pyridin-3-yl]oxy}-N-(1,3-thiazol-2-yl)benzenesulfonamide], the pIC50 was 5.97.

Turning to `CNc1ccc(Oc2ccc(S(=O)(=O)Nc3nccs3)cc2C#N)cn1` [Example 187, 3-cyano-4-{[6-(methylamino)pyridin-3-yl]oxy}-N-(1,3-thiazol-2-yl)benzenesulfonamide], the pIC50 is < 5.18.

In turn, `CC(C)Nc1ccc(Oc2ccc(S(=O)(=O)Nc3nccs3)cc2C#N)cn1` [Example 188, 3-cyano-4-{[6-(propan-2-ylamino)pyridin-3-yl]oxy}-N-(1,3-thiazol-2-yl)benzenesulfonamide] had a negative-log IC50 (pIC50) of 6.16.

For `CCNc1ccc(Oc2ccc(S(=O)(=O)Nc3nccs3)cc2C#N)cn1` [Example 189, 3-cyano-4-{[6-(ethylamino)pyridin-3-yl]oxy}-N-(1,3-thiazol-2-yl)benzenesulfonamide], the negative-log IC50 (pIC50) was < 5.00.

For the compound `N#Cc1cc(S(=O)(=O)Nc2nccs2)ccc1Oc1ccc(OCC(F)(F)F)nc1` [Example 190, 3-cyano-N-(1,3-thiazol-2-yl)-4-{[6-(2,2,2-trifluoroethoxy)pyridin-3-yl]oxy}benzenesulfonamide], the pIC50 was < 5.00.

Regarding `CCOc1ccc(Oc2ccc(S(=O)(=O)Nc3nccs3)cc2C#N)cn1` [Example 191, 3-cyano-4-[(6-ethoxypyridin-3-yl)oxy]-N-(1,3-thiazol-2-yl)benzenesulfonamide], the pIC50 was < 5.00.

With `CC(C)Oc1ccc(Oc2ccc(S(=O)(=O)Nc3nccs3)cc2C#N)cn1` [Example 192, 3-cyano-4-{[6-(propan-2-yloxy)pyridin-3-yl]oxy}-N-(1,3-thiazol-2-yl)benzenesulfonamide], the pIC50 is < 5.00.

With `N#Cc1cc(S(=O)(=O)Nc2nccs2)ccc1Oc1ccc(F)c(F)c1` [Example 243, 3-cyano-4-(3,4-difluorophenoxy)-N-(1,3-thiazol-2-yl)benzenesulfonamide], the pIC50 is 7.11.

On to `N#Cc1ccc(Oc2ccc(S(=O)(=O)Nc3ncc(F)s3)cc2C#N)cc1Cl` [Example 244, 4-(3-chloro-4-cyanophenoxy)-3-cyano-N-(5-fluoro-1,3-thiazol-2-yl)benzenesulfonamide], for which the pIC50 is 6.44.

Compound `N#Cc1cc(Oc2ccc(S(=O)(=O)Nc3ncc(F)s3)cc2C#N)ccc1F` [Example 245, 3-cyano-4-(3-cyano-4-fluorophenoxy)-N-(5-fluoro-1,3-thiazol-2-yl)benzenesulfonamide] gave a pIC50 of 5.70.

Consider `N#Cc1cc(Oc2ccc(S(=O)(=O)Nc3nccs3)cc2C#N)ccc1F` [Example 246, 3-cyano-4-(3-cyano-4-fluorophenoxy)-N-(1,3-thiazol-2-yl)benzenesulfonamide], for which the pIC50 was 6.16.

`N#Cc1ccc(Oc2ccc(S(=O)(=O)Nc3ncc(Cl)s3)cc2C#N)cc1Cl` [Example 247, 4-(3-chloro-4-cyanophenoxy)-N-(5-chloro-1,3-thiazol-2-yl)-3-cyanobenzenesulfonamide] gave a pIC50 of 6.35.

With `N#Cc1cc(S(=O)(=O)Nc2ncc(F)s2)ccc1Oc1ccc(F)c(F)c1` [Example 248, 3-cyano-4-(3,4-difluorophenoxy)-N-(5-fluoro-1,3-thiazol-2-yl)benzenesulfonamide], the pIC50 is < 5.92.

In the case of `O=S(=O)(Nc1nncs1)c1ccc(Oc2ccc(F)c(F)c2)cc1Cl` [Example 249, 2-chloro-4-(3,4-difluorophenoxy)-N-(1,3,4-thiadiazol-2-yl)benzenesulfonamide], the pIC50 was < 5.00.

As to `N#Cc1ccc(Oc2c(F)cc(S(=O)(=O)Nc3ncns3)cc2Br)cc1Cl` [Example 250, 3-bromo-4-(3-chloro-4-cyanophenoxy)-5-fluoro-N-(1,2,4-thiadiazol-5-yl)benzenesulfonamide], the pIC50 was 5.72.

Compound `CC(C)Oc1ncc(Oc2ccc(S(=O)(=O)Nc3nncs3)cc2C#N)cc1Cl` [Example 333] had a pIC50 of 5.12.

As for `N#Cc1cc(S(=O)(=O)Nc2nncs2)ccc1Oc1cnc(OC(F)F)c(Cl)c1` [Example 334], the pIC50 was 5.69.

`CC(Oc1ncc(Oc2ccc(S(=O)(=O)Nc3nncs3)cc2C#N)cc1Cl)C(F)(F)F` (stereo not drawn) [Example 335] had a pIC50 of 5.49.

`N#Cc1cc(S(=O)(=O)Nc2nncs2)ccc1Oc1cnc(OC2CCC2)c(Cl)c1` [Example 336]: the pIC50 was 5.41.

Compound `Cc1cc(Oc2ccc(S(=O)(=O)Nc3nncs3)cc2C#N)cc(C)c1C#N` [Example 337, 3-cyano-4-(4-cyano-3,5-dimethylphenoxy)-N-(1,3,4-thiadiazol-2-yl)benzenesulfonamide] had a negative logarithm of the IC50 (pIC50) of 6.95.

`COc1ncc(Oc2ccc(S(=O)(=O)Nc3nncs3)cc2C#N)cc1Cl` [Example 338] had a negative-log IC50 (pIC50) of 6.10. This pIC50 is 0.85 log units lower than that of the compound before.

Turning to `CC(C)(F)COc1ncc(Oc2ccc(S(=O)(=O)Nc3nncs3)cc2C#N)cc1Cl` [Example 339], the pIC50 was < 5.00.

Compound `Cc1nnc(NS(=O)(=O)c2ccc(Oc3ccc(C#N)c(Cl)c3)c(C#N)c2)s1` [Example 340, 4-(3-chloro-4-cyanophenoxy)-3-cyano-N-(5-methyl-1,3,4-thiadiazol-2-yl)benzenesulfonamide] had a pIC50 of 6.32.

In turn, `N#Cc1cc(S(=O)(=O)Nc2nncs2)ccc1Oc1ccc(CO)c(Cl)c1` [Example 341, 4-[3-chloro-4-(hydroxymethyl)phenoxy]-3-cyano-N-(1,3,4-thiadiazol-2-yl)benzenesulfonamide] had a negative logarithm of the IC50 (pIC50) of 8.05.

Regarding `N#Cc1cc(S(=O)(=O)Nc2nccs2)ccc1Oc1ccc(Cl)cc1OC(F)(F)F` [compound 162], the negative logarithm of the IC50 (pIC50) was 6.25.

Take `N#Cc1cc(S(=O)(=O)Nc2nccs2)ccc1Oc1ccc(Cl)cc1C(F)(F)F` [compound 163]: the pIC50 was 6.17.

As for `N#Cc1cc(S(=O)(=O)Nc2nccs2)ccc1Oc1ccc(OC(F)(F)F)cc1Br` [compound 164], the negative-log IC50 (pIC50) is < 5.00.

`N#Cc1cc(S(=O)(=O)Nc2nccs2)ccc1Oc1ccc(I)cc1` [compound 165]: the pIC50 was 6.30.
